Our source for the IC50 values is US20250136568A1, “FUSED HETEROCYCLIC COMPOUNDS AS PI3KALPHA INHIBITORS” (Nanjing Zenshine Pharmaceuticals Co., Ltd., priority 2021, published 2025).

What all share (type): cell-based
In assay [1] the test system is PI3Kα H1047R mutation cell line MDA-MB-453. Nature of the assay: Cell Proliferation IC50 Assay (CellTiter-Glo), MDA-MB-453. Particulars: Homo sapiens; MDA-MB-453 (H1047R), 72 hours, CellTiter-Glo; read-out: IC50 (μM) MDA-MB-453. An excerpt:
PI3Kα H1047R mutation cell line T-47D and MDA-MB-453, E545K mutation cell line MDA-MB-361 and PI3Kα wide type cell line SK-BR-3 were purchased from Cobioer Biotech (cat. no CBP60397, CBP60386, CBP60383 and CBP60413 respectively). The CellTiter-Glo Direct Cell Proliferation Assay Kit was purchased from Prornega (cat. No. G7573)
For cell proliferation assay in each cell line: • a. Prepare complete medium (R PMI 1640, DMEM or McCoys): Add FBS and appropriate additives according to the information sheet provided by the vendor. Mix gently. • b. Prepare single cell suspension and count the cell numbers and adjust cells to appropriate density. • c. Add 80 μL of cell suspension to 96-well opaque-walled clear bottom plates according to the planned plate layout and place the plates in the CO2 incubator overnight. • d. Prepare intermediate plate: 10 μl of diluted test compounds or staurosporine solution (200×) is added to a 96 deep well plate. Then 390 μl of culture medium without FBS is added to the respective wells. • e. Transfer 20 μL of the solutions from the above intermediate plate to the wells of the plate prepared containing 80 μL of the culture medium and cells. The total dilution is 200 folds. • f. The cells were then incubated at 5% CO2, 37° C. for 72 hours. • g. Equilibrate the plate and its contents to room temperature for approximately 30 minutes. • h. Add 100 μL of CellTiter-Glo reagent to the assay plate • i. Mix contents for 10 minutes on an orbital shaker to induce cell lysis. • j. Allow the plate to incubate at room temperature for 10 minutes to stabilize luminescent signal, • k. Paste the clear bottom with white back seal and record luminescence with Varioskan LUX plate reader.
Inhibition % and IC50 value were calculated by the formula described below: […]
In general terms: ATP-based viability assays read luminescence as a measure of living cells.

Assay [2] concerns PI3Kα wide type cell line SK-BR-3. Nature of the assay: Cell Proliferation IC50 Assay (CellTiter-Glo), SK-BR-3. Particulars: Homo sapiens; SK-BR-3 (PI3Kα wild type), 72 hours, CellTiter-Glo; read-out: IC50 (μM) SK-BR-3. The essentials:
(§1)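 Cells were seeded and left overnight, then exposed to serially diluted compound (200-fold final dilution) for 72 h at 37 °C, 5% CO2. Viability was read by CellTiter-Glo luminescence. Percent inhibition and IC50 were calculated from the signal.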

Assay [3] concerns PI3Kα H1047R mutation cell line T-47D. Nature of the assay: Cell Proliferation IC50 Assay (CellTiter-Glo), T-47D. Particulars: Homo sapiens, T47D, 72 h, T47D (H1047R), 72 hours, CellTiter-Glo; read-out: IC50 (μM) T47D. A digest of the protocol:
as §1

For orientation: IC50 means the concentration needed to halve the response being measured. For the compound `Cc1cc([C@H](C)Nc2ccccc2C(=O)O)c2oc(-c3ccc(N4CCOCC4)cc3)c(C)c(=O)c2c1` (single isomer, unassigned) [Example 53B], the figures for the IC50 in assay [1] and in assay [2] were 2.34 µM and greater than 10 µM, respectively.

For the compound `CCN1Cc2cc(-c3cc(=O)c4cc(C)cc(C(C)Nc5ccccc5C(=O)O)c4o3)ccc2C1=O` (stereo not drawn) [Example 7, 2-((1-(2-(2-ethyl-1-oxoisoindolin-5-yl)-6-methyl-4-oxo-4H-chromen-8-yl)ethyl)amino)benzoic acid], the half-maximal inhibitory concentration (IC50) in assay [1] is 0.25 µM; in assay [2], greater than 10 µM.

Turning to `Cc1cc(C(C)Nc2ccccc2C(=O)O)c2oc(-c3ccc4c(c3)N(C)C(=O)C4)cc(=O)c2c1` (stereo not drawn) [Example 21, 2-((1-(6-methyl-2-(1-methyl-2-oxoindolin-6-yl)-4-oxo-4H-chromen-8-yl)ethyl)amino)benzoic acid], the IC50 in assay [1] and in assay [2] was greater than 10 µM throughout.

With `Cc1cc(C(C)Nc2ccccc2C(=O)O)c2oc(-c3cccc4c3CN(C)C4=O)cc(=O)c2c1` (stereo not drawn) [Example 24, 2-((1-(6-methyl-2-(2-methyl-1-oxoisoindolin-4-yl)-4-oxo-4H-chromen-8-yl)ethyl)amino)benzoic acid], the IC50 in assay [1] was 4.07 µM; in assay [2] it was greater than 10 µM.

Consider `Cc1cc(C(C)Nc2ccccc2C(=O)O)c2oc(-c3cncs3)cc(=O)c2c1` (stereo not drawn) [Example 27, 2-((1-(6-methyl-4-oxo-2-(thiazol-5-yl)-4H-chromen-8-yl)ethyl)amino)benzoic acid], for which the 50% inhibitory concentration (IC50) in assay [1] was 0.74 µM; in assay [2], greater than 10 µM.

As for `Cc1cc(C(C)Nc2ccccc2C(=O)O)c2oc(-c3ccc4c(c3)CN(C(C)C)C4=O)cc(=O)c2c1` (stereo not drawn) [Example 44, -((1-(2-(2-isopropyl-1-oxoisoindolin-5-yl)-6-methyl-4-oxo-4H-chromen-8-yl)ethyl)amino)benzoic acid], the IC50 in assay [1] is 0.39 µM; in assay [2] it was greater than 10 µM.

For the compound `Cc1cc(C(C)Nc2ccccc2C(=O)O)c2oc(-c3ccc4c(c3)CN(C3COC3)C4=O)cc(=O)c2c1` (stereo not drawn) [Example 45, 2-((1-(6-methyl-2-(2-(oxetan-3-yl)-1-oxoisoindolin-5-yl)-4-oxo-411-chromen-8-yl)ethyl)amino)benzoic acid], the IC50 is 0.97 µM in assay [1] and greater than 10 µM in assay [2].

Turning to `Cc1cc(C(C)Nc2ccccc2C(=O)O)c2oc(-c3ccc4c(c3)CN(Cc3ccccc3)C4=O)cc(=O)c2c1` (stereo not drawn) [Example 46, 2-((1-(2-(2-benzyl-1-oxoisoindolin-5-yl)-6-methyl-4-oxo-4H-chromen-8-yl)ethyl)amino)benzoic acid], the IC50 is 0.42 µM in assay [1] and greater than 10 µM in assay [2].

Regarding `Cc1cc(C(C)Nc2ccccc2C(=O)O)c2oc(-c3ccc4c(c3)CCN(C)C4=O)cc(=O)c2c1` (stereo not drawn) [Example 47, 2-((1-(6-methyl-2-(2-methyl-1-oxo-1,2,3,4-tetrahydroisoquinolin-6-yl)-4-oxo-4H-chromen-8-yl)ethyl)amino)benzoic acid], the IC50 is 0.24 µM in assay [1] and greater than 10 µM in assay [2].

For the compound `Cc1cc(C(C)Nc2ccccc2C(=O)O)c2oc(-c3ccc(C(=O)N(C)C)c(C)c3)cc(=O)c2c1` (stereo not drawn) [Example 48, 2-((1-(2-(4-(dimethylcarbamoyl)-3-methylphenyl)-6-methyl-4-oxo-4H-chromen-8-yl)ethyl)amino)benzoic acid], the IC50 in assay [1] is 0.76 µM; in assay [2] it was greater than 10 µM.

Take `Cc1cc(C(C)Nc2ccccc2C(=O)O)c2oc(-c3ccc(=O)n(C)c3)cc(=O)c2c1` (stereo not drawn) [Example 50, 2-((1-(6-methyl-2-(1-methyl-6-oxo-1,6-dihydropyridin-3-yl)-4-oxo-4H-chromen-8-yl)ethyl)amino)benzoic acid]: the figures for the IC50 in assay [1] and in assay [2] were 6.39 µM and greater than 10 µM, respectively.

As to `Cc1cc(C(C)Nc2ccccc2C(=O)O)c2oc(-c3ccc4cn(C)nc4c3)cc(=O)c2c1` (stereo not drawn) [Example 51, 2-((1-(6-methyl-2-(2-methyl-211-indazol-6-yl)-4-oxo-4H-chromen-8-yl)ethyl)amino)benzoic acid], the 50% inhibitory concentration (IC50) was 2.48 µM in assay [1] and greater than 10 µM in assay [2].

On to `Cc1cc(C(C)Nc2ccccc2C(=O)O)c2oc(-c3ccc4cnn(C)c4c3)cc(=O)c2c1` (stereo not drawn) [Example 52, 2-((1-(6-methyl-2-(1-methyl-1H-indazol-6-yl)-4-oxo-4H-chromen-8-yl)ethyl)amino)benzoic acid], for which the IC50 in assay [1] is 0.78 µM; in assay [2] it was greater than 10 µM.

For the compound `Cc1cc(C(C)Nc2ccccc2C(=O)O)c2oc(-c3ccc4nn(C5COC5)cc4c3)cc(=O)c2c1` (stereo not drawn) [Example 56, 2-((1-(6-methyl-2-(2-(oxetan-3-yl)-2H-indazol-5-yl)-4-oxo-4H-chromen-8-yl)ethyl)amino)benzoic acid], the figures for the IC50 in assay [1] and in assay [2] were 0.55 µM and greater than 10 µM, respectively.

Turning to `Cc1cc(C(C)Nc2ccccc2C(=O)O)c2oc(-c3ccc4nn(CCO)cc4c3)cc(=O)c2c1` (stereo not drawn) [Example 57, 2-((1-(2-(2-(2-hydroxyethyl)-2H-indazol-5-yl)-6-methyl-4-oxo-4H-chromen-8-yl)ethyl)amino)benzoic acid], the IC50 in assay [1] is 0.62 µM; in assay [2], greater than 10 µM.

Take `COCCn1cc2cc(-c3cc(=O)c4cc(C)cc(C(C)Nc5ccccc5C(=O)O)c4o3)ccc2n1` (stereo not drawn) [Example 58, 2-((1-(2-(2-(2-methoxyethyl)-211-indazol-5-yl)-6-methyl-4-oxo-4H-chromen-8-yl)ethyl)amino)benzoic acid]: the values for the IC50 in assay [1] and in assay [2] were 0.27 µM and greater than 10 µM, respectively.

On to `Cc1cc(C(C)Nc2ccccc2C(=O)O)c2oc(-c3ccc4ncn(C)c4c3)cc(=O)c2c1` (stereo not drawn) [Example 60, 2-((1-(6-methyl-2-(1-methyl-1H-benzo[d]imidazol-6-yl)-4-oxo-4H-chromen-8-yl)ethyl)amino)benzoic acid], for which the IC50 was 6 µM in assay [1] and greater than 10 µM in assay [2].

On to `Cc1cc(C(C)Nc2ccccc2-c2nc(=O)o[nH]2)c2oc(-c3ccc4nn(C)cc4c3)c(C)c(=O)c2c1` (stereo not drawn) [Example 177, 3-(2-((1-(3,6-dimethyl-2-(2-methyl-2H-indazol-5-yl)-4-oxo-4H-chromen-8-yl)ethyl)amino)phenyl)-1,2,4-oxadiazol-5(2H)-one], for which the IC50 in assay [2] is greater than 10 µM; in assay [3], 0.31 µM.

Regarding `Cc1cc([C@@H](C)Nc2ccc(Cl)nc2C(=O)O)c2oc(-c3ccc(-c4cnn(C)c4)nc3)c(C)c(=O)c2c1` [Example 186, (R)-6-chloro-3-((1-(3,6-dimethyl-2-(6-(1-methyl-1H-pyrazol-4-yl)pyridin-3-yl)-4-oxo-4H-chromen-8-yl)ethyl)amino)picolinic acid], the values for the IC50 in assay [2] and in assay [3] were 8.68 µM and 0.16 µM, respectively.

With `Cc1cc([C@@H](C)Nc2ccccc2C(=O)O)c2oc(-c3ccc(CN4CCN(C)CC4)nc3)c(C)c(=O)c2c1` [Example 188, (R)-2-((1-(3,6-dimethyl-2-(6-((4-methylpiperazin-1-yl)methyl)pyridin-3-yl)-4-oxo-4H-chromen-8-yl)ethyl)amino)benzoic acid], the IC50 is greater than 10 µM in assay [2] and 0.13 µM in assay [3].

`Cc1cc([C@@H](C)Nc2ccc(Cl)nc2C(=O)O)c2oc(-c3ccc(CN4CCN(C)CC4)cc3)c(C)c(=O)c2c1` [Example 189, (R)-6-chloro-3-((1-(3,6-dimethyl-2-(4-((4-methylpiperazin-1-yl)methyl)phenyl)-4-oxo-4H-chromen-8-yl)ethyl)amino)picolinic acid]: the IC50 is greater than 10 µM in assay [2] and 0.11 µM in assay [3].

Turning to `COC(=O)c1ccccc1N[C@H](C)c1cc(C)cc2c(=O)c(C)c(-c3ccc(-c4cnn(C)c4)nc3)oc12` [Example 190, methyl (R)-2-((1-(3,6-dimethyl-2-(6-(1-methyl-1H-pyrazol-4-yl)pyridin-3-yl)-4-oxo-4H-chromen-8-yl)ethyl)amino)benzoate], the IC50 in assay [2] stood at 6.05 µM; in assay [3], 0.27 µM.

Regarding `CNC(=O)c1ccccc1N[C@H](C)c1cc(C)cc2c(=O)c(C)c(-c3ccc(-c4cnn(C)c4)nc3)oc12` [Example 191, (R)-2-((1-(3,6-dimethyl-2-(6-(1-methyl-1H-pyrazol-4-yl)pyridin-3-yl)-4-oxo-4H-chromen-8-yl)ethyl)amino)-N-methylbenzamide], the half-inhibitory concentration (IC50) was 2.02 µM in assay [2] and 0.27 µM in assay [3].

For `Cc1cc([C@@H](C)Nc2ccccc2C(=O)O)c2oc(-c3ccc(OCCN(C)C)nc3)c(C)c(=O)c2c1` [Example 192, (R)-2-((1-(2-(6-(2-(dimethylamino)ethoxy)pyridin-3-yl)-3,6-dimethyl-4-oxo-4H-chromen-8-yl)ethyl)amino)benzoic acid], the results for the IC50 in assay [2] and in assay [3] were greater than 10 µM and 0.1 µM, respectively.
